Experimental data taken from patent publication US8222260B2, “Substituted 6-anilinopurine derivatives as inhibitors of cytokinin oxidase/dehydrogenase and preparations containing these derivatives” (Univerzita Palackego V Olomouci, priority 2007, dated 2012).
Where two headings read alike, the source gives them in different places. Each block holds one compound with its values, some of them ahead of it.

Tests used:
[1] = system: Rat C6 glioma (ATCC No. CCL107); assay: Anti-inflammatory activity: isoproterenol-induced cAMP synthesis (ELISA); format: cell-based; details: cAMP after 30 min, induced by (−)-isoproterenol; for IC50: Rattus norvegicus, C6 glioma, 0.5 h, read-out: I50
Experimental: Anti-inflammatory activity of several of the substituted 6-anilinopurine derivatives of this invention was determined; kinetin was also evaluated as a control. Rat C6 glioma (ATCC No. CCL107) was cultivated in monolayer in serum-free chemically defined medium containing Ham's F10/minimal essential medium (1:1 v/v), 2 mM L-glutamine, 1% (v/v) minimal essential medium vitamins (100×), 1% (v/v) minimal essential medium nonessential amino acids (100×), 100 U/ml penicillin, […], and 30 nM sodium selenite. Incubation was performed at 37° C. in a 100% humidified atmosphere. The assays were performed in the logarithmic growth phase at a density of 2.5×10^5 cells/cm^2. Intracellular cAMP synthesis was induced by addition of 5 mM (−)-isoproterenol; various amounts of test compounds were added at the same time as the (−)-isoproterenol. After 30 min incubation, the cellular amount of cAMP was determined using ELISA (cAMP-enzyme immunoassay kit from Amersham). The I50 values were determined from the dose-response curve in duplicate.

AHK3 = biological target: T1, AHK3 (Arabidopsis thaliana, UniProt Q9C5U1); assay: Activation of cytokinin receptors (E. coli KMI001 beta-galactosidase reporter); format: cell-based; details: 28 h incubation; n.a. means no activation
T1 sequence (Q9C5U1 1-1036): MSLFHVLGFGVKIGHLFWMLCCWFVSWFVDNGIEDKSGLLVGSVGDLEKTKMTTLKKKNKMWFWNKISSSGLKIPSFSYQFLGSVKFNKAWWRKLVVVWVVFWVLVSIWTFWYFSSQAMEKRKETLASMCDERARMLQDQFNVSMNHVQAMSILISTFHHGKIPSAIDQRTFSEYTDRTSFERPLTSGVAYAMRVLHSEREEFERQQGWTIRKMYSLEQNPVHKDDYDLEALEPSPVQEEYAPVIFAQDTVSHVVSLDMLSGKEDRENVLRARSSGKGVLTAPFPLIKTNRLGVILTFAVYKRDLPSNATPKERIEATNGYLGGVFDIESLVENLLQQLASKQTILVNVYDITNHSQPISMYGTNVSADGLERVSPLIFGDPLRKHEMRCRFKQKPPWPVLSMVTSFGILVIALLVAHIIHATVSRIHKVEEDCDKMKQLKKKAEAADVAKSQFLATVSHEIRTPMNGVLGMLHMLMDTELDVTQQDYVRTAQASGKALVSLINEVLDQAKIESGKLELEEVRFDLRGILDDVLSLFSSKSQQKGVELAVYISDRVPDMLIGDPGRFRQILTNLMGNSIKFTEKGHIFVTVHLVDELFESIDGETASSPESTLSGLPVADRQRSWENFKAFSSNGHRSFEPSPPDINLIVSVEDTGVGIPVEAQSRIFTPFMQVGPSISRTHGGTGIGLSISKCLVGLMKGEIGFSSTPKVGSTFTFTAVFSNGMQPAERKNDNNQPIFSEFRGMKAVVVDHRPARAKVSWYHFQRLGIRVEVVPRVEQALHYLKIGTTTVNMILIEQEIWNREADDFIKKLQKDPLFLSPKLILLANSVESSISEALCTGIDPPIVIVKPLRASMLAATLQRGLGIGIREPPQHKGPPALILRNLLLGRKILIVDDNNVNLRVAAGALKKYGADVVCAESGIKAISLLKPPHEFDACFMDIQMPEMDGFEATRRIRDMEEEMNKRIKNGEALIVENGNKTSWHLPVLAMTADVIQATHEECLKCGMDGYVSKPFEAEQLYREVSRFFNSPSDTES
Summary of the method: (§1)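 E. coli KMI001 carrying the receptor plasmid was grown in M9 + 0.1% casamino acids at 25 °C, diluted 1:600 and treated with compound (stock solutions 10^-7–5×10^-5 M). Supernatant β-galactosidase was read by 4-methylumbelliferyl galactoside hydrolysis (1 h, 37 °C, Na2CO3 stop). EC50 came from dose-response curves, triplicate means.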

recombinant AtCKX2 = biological target: T2, recombinant AtCKX2 (Arabidopsis thaliana, UniProt Q9FUJ3); assay: Inhibition of cytokinin oxidase/dehydrogenase activity (PMS/MTT microtitre plate assay); format: biochemical; details: 30 μM iP as substrate, pH 7.4, 37° C.; means of three replicates; read-out: IC50, inhibition of recombinant AtCKX2
T2 sequence (Q9FUJ3 23-501): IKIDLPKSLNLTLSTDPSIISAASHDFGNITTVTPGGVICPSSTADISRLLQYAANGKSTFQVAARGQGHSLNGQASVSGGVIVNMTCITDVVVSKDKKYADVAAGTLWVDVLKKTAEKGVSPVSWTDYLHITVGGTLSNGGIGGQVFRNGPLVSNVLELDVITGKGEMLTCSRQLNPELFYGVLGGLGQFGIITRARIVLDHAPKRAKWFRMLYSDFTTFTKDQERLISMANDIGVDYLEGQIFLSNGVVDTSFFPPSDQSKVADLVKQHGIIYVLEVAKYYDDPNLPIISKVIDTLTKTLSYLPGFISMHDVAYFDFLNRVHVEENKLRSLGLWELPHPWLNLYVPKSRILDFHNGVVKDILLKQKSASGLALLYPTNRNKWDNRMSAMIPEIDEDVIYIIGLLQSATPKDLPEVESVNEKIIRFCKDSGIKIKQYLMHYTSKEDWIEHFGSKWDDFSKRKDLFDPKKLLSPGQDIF
Experimental: IC50 determinations were done using the assay in microtitre plate. Each well contained 100 μL of PMS/MTT [phenazine methosulfate/3-(4,5-dimethylthiazol-2-yl)-2,5-diphenyltetrazolium bromide] reaction mixture (final concentrations: 0.1 M KH2PO4, pH 7.4, 1 mM MTT, 0.2 mM PMS) containing the tested compound (3×10^−7 M-3×10^−4 M) and 30 μM N^6-isopentenyladenine (iP) as a substrate. 100 μL of cell-free growth medium of S. cerevisiae strain 23344c ura^− harboring the plasmid pYES2-AtCKX2 was directly used as a source of AtCKX2. Plates were incubated in the dark for […] at 37° C. and the enzymatic reaction was stopped by 25 μL of 35% acetic acid. The absorbance at 578 nm was measured using spectrophotometer Tecan. Absorbance of the sample without iP was subtracted.
The IC50 value, the compound concentration that inhibits the enzyme activity to 50%, was calculated from the obtained dose response curves. The values shown in Table 9 are means of three replicates and the entire test was repeated at least twice.

CRE1/AHK4 = CRE1/AHK4 (Arabidopsis thaliana, UniProt Q9C5U0); assay: Activation of cytokinin receptors (E. coli KMI001 beta-galactosidase reporter); format: cell-based; details: 17 h incubation; n.a. means no activation
CRE1/AHK4, sequence (Q9C5U0 whole entry): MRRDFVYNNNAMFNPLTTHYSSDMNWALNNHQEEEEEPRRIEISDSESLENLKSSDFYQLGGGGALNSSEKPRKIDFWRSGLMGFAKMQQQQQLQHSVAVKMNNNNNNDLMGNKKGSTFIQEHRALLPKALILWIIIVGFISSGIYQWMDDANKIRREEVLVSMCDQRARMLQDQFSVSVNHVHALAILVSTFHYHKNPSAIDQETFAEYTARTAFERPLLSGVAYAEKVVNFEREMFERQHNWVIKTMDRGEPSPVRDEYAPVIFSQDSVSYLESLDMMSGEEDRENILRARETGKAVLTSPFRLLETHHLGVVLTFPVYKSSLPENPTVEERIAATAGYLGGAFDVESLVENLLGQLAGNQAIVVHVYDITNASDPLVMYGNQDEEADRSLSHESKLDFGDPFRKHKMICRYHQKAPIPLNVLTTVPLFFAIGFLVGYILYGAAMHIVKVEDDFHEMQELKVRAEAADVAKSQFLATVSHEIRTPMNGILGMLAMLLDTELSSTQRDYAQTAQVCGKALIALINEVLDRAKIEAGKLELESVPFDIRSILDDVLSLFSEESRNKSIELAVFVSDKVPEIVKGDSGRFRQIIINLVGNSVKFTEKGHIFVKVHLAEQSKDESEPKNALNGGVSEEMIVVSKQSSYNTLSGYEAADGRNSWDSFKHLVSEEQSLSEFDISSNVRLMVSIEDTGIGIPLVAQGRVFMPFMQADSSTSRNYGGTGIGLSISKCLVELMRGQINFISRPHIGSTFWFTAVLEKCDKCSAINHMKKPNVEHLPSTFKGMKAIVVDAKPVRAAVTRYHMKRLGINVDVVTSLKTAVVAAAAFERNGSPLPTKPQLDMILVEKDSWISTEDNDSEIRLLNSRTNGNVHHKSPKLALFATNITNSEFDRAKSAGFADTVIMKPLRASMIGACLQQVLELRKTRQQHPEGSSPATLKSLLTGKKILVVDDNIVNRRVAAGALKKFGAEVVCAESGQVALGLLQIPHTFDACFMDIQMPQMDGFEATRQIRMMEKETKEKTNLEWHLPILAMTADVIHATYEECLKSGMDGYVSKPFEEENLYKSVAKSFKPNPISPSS
Summary of the method: as §1

[2] = system: cytokinin-dependent tobacco callus Nicotiana tabacum L. cv. Wisconsin 38; assay: Tobacco callus biotest (plant cell division); format: cell-based; details: at the concentration with highest activity, relative to 10^−5 M kinetin
[3] = system: Amaranthus caudatus cotyledon/hypocotyl explants; assay: Amaranthus bioassay (betacyanin content); format: cell-based, Amaranthus caudatus var. atropurpurea; details: at the concentration with highest activity, relative to 10^−5 M kinetin
Summary of the method: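 Etiolated A. caudatus cotyledon/hypocotyl explants (72 h seedlings, roots removed) incubated 48 h at 25 °C in darkness on medium with phosphate buffer pH 6.8, tyrosine and test compound. Betacyanin extracted in acetic acid, quantified as A537−A620.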

[4] = system: osteosarcoma cell line HOS; assay: Calcein AM cytotoxicity assay; format: cell-based, human; details: Homo sapiens, 72 hours
Source text: (§2) Absence of toxic effects against mammalian (especially human) cell lines in a wide concentration range is one of the requirements on compounds intended for use in agriculture and medicine. Because toxic compounds negatively influence metabolic processes in cells, many standard cytotoxicity assays are based on measurement of metabolisation rate of various artificial substrates. Resulting product is then quantified e.g. by means of spectrometry. The assays can be easily modified for use in 96-well plates. For evaluation of cytotoxic effect of compounds of this invention, a microtiter assay based on quantification of metabolisation of Calcein AM was used. The assay is widely used in drug screening programs and in chemosensitivity testing. In live cells, Calcein AM is enzymatically hydrolysed and accumulation of resulting calcein is manifested by green fluorescence.
(§3) Following human cell lines were used for routine screening of the compounds: T-lymphoblastic leukemia cell line CEM, promyelocytic leukemia cell line HL-60, erytroid leukemia cell line K-562, breast carcinoma cell line MCF-7, osteosarcoma cell line HOS and melanoma cell line G-361. Mouse cell lines B16-F10 (melanoma) and NIH-3T3 (fibroblasts) were used as well. The cells were maintained in Nunc/Corning 80 cm^2 plastic tissue culture flasks and cultured in cell culture medium (DMEM with 5 g/l glucose, 2 mM glutamine, 100 U/ml penicillin, 100 μg/ml streptomycin, 10% fetal calf serum and sodium bicarbonate).
(§4) The cell suspensions were prepared and diluted according to the particular cell type and the expected target cell density (2.500-30.000 cells per well based on cell growth characteristics) and pippetted (80 μl) into 96-well plates. Inoculates were allowed a pre-incubation period of 24 hours at 37° C. and 5% CO2 for stabilisation. Tested compound was added in total volume of 20 μl of water at time zero. Usually, test compound was evaluated at six 3-fold dilutions. In routine testing, the highest concentration tested was 166.6 μM. All drug concentrations were tested in triplicates. Incubations of cells with the test compounds lasted for 72 hours at 37° C., in 5% CO2 atmosphere and 100% humidity. At the end of incubation period Calcein AM in PBS was added into final concentration of 1 μg/ml. After another 1 hour of incubation fluorescence (FD) was measured with the Labsystem FIA Reader Fluoroscan Ascent (UK). Growth inhibition (GI) was estimated using the following equitation: GI=(mean FDdrug exposed wells−mean FDblank)/(mean FDcontrol wells−mean FDblank)×100%. The GI50 value, the drug concentration causing 50% reduction of Calcein AM conversion, was calculated from the obtained dose response curves.

[5] = system: breast carcinoma cell line MCF-7; assay: Calcein AM cytotoxicity assay; format: cell-based, human
Source text: as §2
(§5) Mouse cell lines B16-F10 (melanoma) and NIH-3T3 (fibroblasts) were used as well. The cells were maintained in Nunc/Corning 80 cm^2 plastic tissue culture flasks and cultured in cell culture medium (DMEM with 5 g/l glucose, 2 mM glutamine, 100 U/ml penicillin, 100 μg/ml streptomycin, 10% fetal calf serum and sodium bicarbonate).
as §4, with “In routine testing, the highest concentration tested was 166.6 μM.” left out, “FDblank)×100%.” for “FDblank)×100%. The GI50 value, the drug concentration causing 50% reduction of Calcein AM conversion, was calculated from the obtained dose response curves.”

NIH-3T3 (fibroblasts) = assay: Calcein AM cytotoxicity assay; format: cell-based, Mouse
Source text: as §2, §5
as §4, with “In routine testing, the highest concentration tested was 166.6 μM.” left out, “FDblank)×100%.” for “FDblank)×100%. The GI50 value, the drug concentration causing 50% reduction of Calcein AM conversion, was calculated from the obtained dose response curves.”

[6] = system: erytroid leukemia cell line K-562; assay: Calcein AM cytotoxicity assay; format: cell-based, human; details: Homo sapiens, K562, 72 hours
Source text: as §2, §3, §4

[7] = system: T-lymphoblastic leukemia cell line CEM; assay: Calcein AM cytotoxicity assay; format: cell-based, human; details: 72 hours
Source text: as §2, §5
as §4, with “In routine testing, the highest concentration tested was 166.6 μM.” left out, “FDblank)×100%.” for “FDblank)×100%. The GI50 value, the drug concentration causing 50% reduction of Calcein AM conversion, was calculated from the obtained dose response curves.”

[8] = system: promyelocytic leukemia cell line HL-60; assay: Calcein AM cytotoxicity assay; format: cell-based, human; details: read-out: GI50 HL60
Source text: as §2, §5
as §4, with “In routine testing, the highest concentration tested was 166.6 μM.” left out, “FDblank)×100%.” for “FDblank)×100%. The GI50 value, the drug concentration causing 50% reduction of Calcein AM conversion, was calculated from the obtained dose response curves.”

IC50 [1]: 11 µM
SMILES: COc1cc(CNc2nc(Cl)nc3nc[nH]c23)cc(OC)c1 [2-chloro-6-(3,5-dimethoxybenzylamino)purine]
Effect (anti-inflammatory activity) [1]: Inhibition

IC50 [1]: 7 µM
SMILES: COc1cccc(CNc2nc(Cl)nc3nc[nH]c23)c1 [2-chloro-6-(3-methoxybenzylamino)purine]
Effect (anti-inflammatory activity) [1]: Inhibition

EC50 (AHK3): 31.7 µM | IC50 [1]: 25 µM
SMILES: Oc1ccccc1Nc1nc(Cl)nc2nc[nH]c12 [Compound 8, 2-chloro-6-(2-hydroxyanilino)purine]
Effect (anti-inflammatory activity) [1]: Inhibition

Second part, the compound before the results:

SMILES: Fc1nc(Nc2ccc(Cl)cc2)c2nc[nH]c2n1 [Compound 43]
IC50 (recombinant AtCKX2): 27 µM | EC50 (AHK3): 27 µM | EC50 (CRE1/AHK4): 39.8 µM | Activity (%) [10^−5 mol · l^−1 K = 100%] [2]: 130% | Activity (%) [10^−5 mol · l^−1 K = 100%] [3]: 102.6%

SMILES: Fc1cccc(Nc2nc(F)nc3[nH]cnc23)c1 [Compound 45]
IC50 (recombinant AtCKX2): 22.1 µM | EC50 (AHK3): 42.1 µM | EC50 (CRE1/AHK4): > 50 µM | Activity (%) [10^−5 mol · l^−1 K = 100%] [2]: 127.9% | Activity (%) [10^−5 mol · l^−1 K = 100%] [3]: 105.1%

SMILES: Nc1nc(Nc2ccc(O)cc2)c2nc[nH]c2n1 [Compound 73]
EC50 (AHK3): > 50 µM | EC50 (CRE1/AHK4): > 50 µM | GI50 [4]: > 167 µM | GI50 ([5]; Homo sapiens, MCF7, 72 hours): > 167 µM | GI50 (NIH-3T3 (fibroblasts); Mus musculus, NIH3T3, 72 hours): > 167 µM

SMILES: Nc1ncnc2nc[nH]c12 [adenine, reference compound]
GI50 [6]: > 167 µM | GI50 ([7]; Homo sapiens): > 167 µM | GI50 ([5]; Homo sapiens, MCF7, 72 hours): > 167 µM | GI50 ([8]; Homo sapiens, HL-60, 72 hours): > 167 µM | GI50 (NIH-3T3 (fibroblasts); Mus musculus, NIH3T3, 72 hours): > 167 µM

SMILES: C/C(=C\CNc1ncnc2nc[nH]c12)CO [trans-zeatin, reference compound]
EC50 (AHK3): 2.1 µM | EC50 (CRE1/AHK4): 0.9 µM | GI50 [7]: > 167 µM | GI50 ([5]; 72 hours, read-out: GI50 MCF7): > 167 µM | GI50 ([8]; 72 hours): > 167 µM | GI50 (NIH-3T3 (fibroblasts); 72 hours): > 167 µM
